Source: patent US8287893B2, “Bioactive agrichemical compositions and use thereof” (Sciessent LLC, priority 2007, dated 2012)
Read-outs that look alike come from different tables or passages of the source.

Columns and labels:
[1] = tested on: Saccharomycetes Cerevisiae (Fleishmann's Bakers yeast); test: Yeast growth suppression, turbidity of yeast suspension in growth medium; type: cell-based; design: key to turbidity T0 / turbidity T18 / change in turbidity T48 − T0 / turbidity T48 / turbidity T72 / turbidity T96 / change in turbidity T18 − T0 / change in turbidity T72 − T0 / change in turbidity T96 − T0: turbidity in NTU
Experimental: Saccharomycetes Cerevisiae was selected as a test organism as it is generally accepted in the industry as an indicator or surrogate organism for a wide variety of fungi. In each of these experiments, the same general procedure was followed unless otherwise indicated.
Experimental Detail: A growth medium was prepared by adding 10 grams of nutrient medium (Difco Sabouraud dextrose broth from BD of Franklin Lakes, N.J., USA) to 300 ml of distilled water. Fleishmann's Bakers yeast was then added to the growth medium while mixing using a magnetic stirrer until a uniform dispersion was obtained having an initial turbidity of between about 50 and 100 NTU as measured using a HF Instruments DRT 100B Turbidity Meter. Once the appropriate dispersion was obtained, 20 ml aliquots were then dispensed, with continued mixing, into 40 ml borosilicate glass vials with Teflon lined caps (VWR International Cat. No. 15900-004). The system/component to be evaluated was then added to the vial and intimately shaken to ensure a good, substantially homogeneous mixture. The turbidity of each mixture was then determined and the vial transferred to an incubator at 30° C. Each vial was periodically removed from the incubator and the mixture in the vials assessed for turbidity: the specific timing for such evaluation was as set forth in the discussion of the experiments and the accompanying tables.
In each experiment, unless otherwise specified, a 2 ml aqueous solution containing the specified bioactive system or component thereof was added to the 20 ml yeast suspension and mixed thoroughly. Typically the surfactants were added separately in a concentrated solution in water; however, the volume added was negligible: a fraction of an ml. For convenience in understanding efficacy levels, the amounts or concentrations of the various components presented in each of the following tables and experiments are of the diluted material in the test vial: not of the concentrate added to the test vial. Furthermore, the concentrations presented are on the basis of a 20 ml total volume, not the actual 22+ ml volume. Multiplying each of the listed concentrations by 0.9 (or 0.95 with those compositions using 1 ml aqueous solutions) will provide a more accurate assessment of the concentrations of the various components evaluated, i.e., a 5 ppm silver concentration is actually closer to 4.5 ppm. Finally, for those vials to which no bioactive system or component thereof was added (the controls) or which only contained the surfactants, 2 ml of additional growth medium was added to ensure relative equivalent dilutions of the yeast.
In the tables below, the results are presented as the actual turbidity readings (NTU) with a sub-table presenting the change or delta in NTU values. Given the nature of the system, changes in turbidity are reflective of the relative performance/bioefficacy of the bioactive systems and their components.

E. amylovora 153N = test: Fire blight on Snow Drift crabapple trees (Example 287); type: in vivo; details: for cankers, result in words / shoot blight incidence, result in words: day 63
Experimental: A study of the bioefficacy of the various agrichemical compositions, including bioactive acid solutions and blends thereof with an antibiotic agrichemical, were evaluated to assess their bioefficacy against fire blight on crabapples. The study was conducted on 5 year old Snow Drift crabapple trees, with each of the compositions being applied to ten trees in two-subplots of five trees, four different times: at 100% bloom-day 1, a second application was made on day 4, a third on day 11 and a final treatment on day 19. The trees were inoculated with E. amylovora […] at a concentration of 4×10^6 cells per milliliter on day 1, following drying of the treatment, with the inoculation being repeated on day 13. Evaluation for fire blight was completed on 100 blossoms for each of the subplots on day 12, day 19 and day 27. Additionally, the incidence of shoot infection and the length of […] evaluated on day 63. The test compositions were prepared by forming solutions of the bioactive agents. Two different dilutions of the MI2 bioactive were evaluated; the first employing 94.46 ml/gallon (25 ml/l) of water (5 ppm of each metal) and the second 188.9 ml/gallon (50 ml/l) of water (10 ppm of each metal). […] Finally, copper hydroxide was diluted at a rate of 1 lb/gallon (119.8 g/l). Each of the compositions and blends were spray applied at a rate of 50 gallons (189.3 l) pre acre. The results are presented as the mean of the counts.

[2] = Table 12, surfactant ~0.05 wt % neat, Metal ppm 0
[3] = Table 12, surfactants ~0.05 wt %, Metal ppm 2.5 each of Cu, Ag, Zn, ~0.2% citric acid
[4] = Table 12, surfactants ~0.05 wt %, Metal ppm 5 each of Cu, Ag, Zn, ~0.4% citric acid

For `CCCCCCCCCCCCOS(=O)(=O)[O-].[Na+]`, the “change in turbidity T48 − T0” value [1, 2] was 610, the “turbidity T0” value [1, 2] was 48 and the “turbidity T18” value [1, 2] was 495. For the same compound, the “change in turbidity T18 − T0” value [1, 3] was 2, the “change in turbidity T48 − T0” value [1, 3] was 0 and the “change in turbidity T72 − T0” value [1, 3] was 0. The “change in turbidity T96 − T0” value [1, 3] was −1, the “turbidity T0” value [1, 3] was 88 and the “turbidity T18” value [1, 3] was 90. The “turbidity T48” value [1, 3] was 88, the “turbidity T72” value [1, 3] was 88 and the “turbidity T96” value [1, 3] was 87. The “change in turbidity T18 − T0” value [1, 4] was 13, the “change in turbidity T48 − T0” value [1, 4] was 2 and the “change in turbidity T72 − T0” value [1, 4] was 7. The “change in turbidity T96 − T0” value [1, 4] was 1.
In the case of `O=C([O-])CC(O)(CC(=O)[O-])C(=O)[O-].[Ag+].[Ag+].[Ag+]` [Example 1, silver citrate], the “Change in Turbidity from T0 (delta NTU) Time 1 Hr” value (shortened to “Change … (delta NTU) Time 1 Hr”) ([1]; Table 1A, 1 hour) is reported as 15.1 NTU, the “Change in Turbidity from T0 (delta NTU) T 18 hours” value (from here on “Change … (delta NTU) T 18 hours”) ([1]; Table 1A, 18 hours) is reported as 845.5 NTU and the “Change in Turbidity from T0 (delta NTU) T 24 hours” value (from here on “Change … (delta NTU) T 24 hours”) ([1]; Table 1A, 24 hours) is reported as 887.5 NTU. The “Change in Turbidity from T0 (delta NTU) T 96 Hours” value (from here on “Change … (delta NTU) T 96 Hours”) ([1]; Table 1A, 96 hours) was 950.5 NTU.
In the case of `O=C([O-])CC(O)(CC(=O)[O-])C(=O)[O-].O=C([O-])CC(O)(CC(=O)[O-])C(=O)[O-].[Zn+2].[Zn+2].[Zn+2]` [Example 7, zinc citrate], the “Change … (delta NTU) T 96 Hours” value [1] is reported as 1007.2 NTU, the “Change … (delta NTU) T 18 hours” value [1] is reported as 948.2 NTU and the “Change … (delta NTU) T 24 hours” value [1] is reported as 949.2 NTU. The “Change … (delta NTU) Time 1 Hr” value [1] was 20.7 NTU.
In the case of `[Cu+2].[OH-].[OH-]` [copper hydroxide], the “Shoot Incidence” value (E. amylovora 153N; Day 63, rate 5 lbs/a (2.27 kg/a), mean of the counts) is reported as 1.0, the “cankers, result in words” value (E. amylovora 153N) is reported as “appeared to prevent canker” and the “shoot blight incidence, result in words” value (E. amylovora 153N) is reported as “greatly reduced”.
`[H]/N=C(/N)N[C@H]1[C@H](O)[C@@H](O)[C@H](O[C@@H]2O[C@@H](C)[C@](O)(C=O)[C@H]2O[C@@H]2O[C@@H](CO)[C@H](O)[C@@H](O)[C@@H]2NC)[C@@H](N/C(N)=N\[H])[C@@H]1O` [streptomycin] was tested, and the “cankers, result in words” value (E. amylovora 153N) was “appeared to prevent canker” and the “shoot blight incidence, result in words” value (E. amylovora 153N) was “greatly reduced”.
In the case of copper citrate [Example 13], the “Change … (delta NTU) T 96 Hours” value [1] is reported as 1054.4 NTU, the “Change … (delta NTU) T 18 hours” value [1] is reported as 894.4 NTU and the “Change … (delta NTU) T 24 hours” value [1] is reported as 975.4 NTU. For the same compound, the “Change … (delta NTU) Time 1 Hr” value [1] was 22.4 NTU.
